Measurements: patent US10457961B2, “Chimeric proteins and methods of regulating gene expression” (The Board of Trustees of the Leland Stanford Junior …, priority 2016, dated 2019)

Tests used:
[1] = tested on: 12xCSL promoter H2B-citrine reporter; test: H2B-citrine reporter driven by 12xCSL promoter in CHO cells with sasgCSL; format: cell-based, Chinese hamster; settings: with S. aureus-specific sgRNA (sasgCSL)
From the text: Chimera modularity was further explored by testing another Cas9 ortholog in a similar reporter assay (H2B-citrine driven by a 12×CSL promoter that also allows wild-type NICD to bind). A Staphylococcus aureus dCas9 was introduced in the NC5 design. This resulting S. au.
All cell lines used in FIGS. 31A-31F were based on the cell line T-Rex-CHO-K1 (Invitrogen). Stable cell clones of UAS-H2B-citrine and 12×CSL-H2B-citrine were obtained. Additional cell lines were generated from lentiviral transduction (of all sgRNAs and SV40-EGFP) or plasmid transfection using TransIT-LT1 reagent (Minis Bio) per manufacturer's instructions, followed by appropriate antibiotic selection and maintenance. Stably transfected clones expressing NC5 and sgUAS in the UAS-H2B-citrine line were isolated by FACS, after 2 weeks of puromycin and geneticin selection. All CHO cell lines were grown in Alpha MEM with Earle's Salts (Irvine Scientific) supplemented with 10% Tet System Approved FBS (Clontech), 100 U/mL of penicillin and streptomycin, 2 mM L-glutamine (Gibco) and 10 μg/mL blasticidin (VWR International) at 37° C. with 5% CO2 in a humidified incubator.
Surface adsorption of Delta: Experiments described in this example were performed with cells plated on 24- or 48-well plates (Corning) at 1.5×10^4 cells/mL. […]

luciferase reporter gene = test: Luciferase reporter activation by chimeric CXCR4-dCas9-VPR in HEK293 cells; format: cell-based, human
From the text: FIGS. 23A and 23B show the results from three independent experiments testing the activity of a chimeric CXCR4-dCas9-VPR-mCherry 2301 in host cells, e.g., HEK293 cells. After ligand binding 2311, the β2-arrestin-protease was recruited to the activated receptor and the protease released the dCas9-VPR-mCherry from the receptor 2321. The expression construct for the β2-arrestin-protease is shown as 2351. The reporter construct is shown in 2341. In each experiment, the dCas9-VPR was paired with a single guide RNA (sgRNA) that specifically activates luciferase expression, which in turn generates luminescence. In this experiment a sgRNA-BFP was used 2331. In some experiments, a scFv-mCherry-VPR 2305 and/or a dCas9-10×GCN4 2307 was used as a control.
The CXCR4-dCas9-VPR-mCherry 2361 was conditionally expressed from a doxycycline-inducible promoter (TRE3G), such that only addition of doxycycline (Dox) and the presence of a co-activator can trigger expression of the recombinant receptor. Without Dox, there is no luminescence (FIG. 23B). […] Upon Dox addition, chimeric CXCR4-dCas9 was expressed, and luminescence was detected. […] Chimeric GPCR-dCas9 proteins described herein can be expressed in immune cells such as T cells and macrophages. Also, chemotactic experiments can be performed to determine if CXCL12 can serves as a chemoattractant to T cells expressing the chimeric GPCR-dCas9 proteins. […]

GFP reporter = GFP reporter activation by chimeric GPCR-dCas9-VPR receptors in HEK293T cells; format: cell-based, human; settings: sgRNA and β2-arrestin-protease; presence of ligand (LPA, SDF1, or CNO) compared to absence of ligand
From the text: The released dCas9-VPR was then targeted by sgRNA to a target polynucleotide to alter expression levels of a GFP reporter.

pTET-EGFP reporter = test: EGFP reporter activation by dCas9-VPR iNLS variants in HEK293 pTET-EGFP sgTET cells; format: cell-based, human
From the text: Cas9 found at amino acid residues 647-670. […] Representative histograms of EGFP activation in the presence or absence (bottom) of constructs and quantification of EGFP activation (normalized to untransfected cells) is shown (SEQ ID NO: 31, 32). […] FIGS. 35C and 35D show visually by microscopy and quantitatively that adding a synthetic NLS to the N-terminus of iNLS-mutated dCas9-VPR partially restores EGFP activation.
Cas9. This iNLS sequence ([…] (SEQ ID NO: 31)) of amino-acid residues was mapped to a helix-linker-helix motif in the crystal structure of S. py. Cas9. […] Mutating 6 arginine or lysine residues of the iNLS to alanines ([…] (SEQ ID NO: 32)) in a dCas9-VPR-mCherry construct impaired EGFP activation (from 18-fold down to 4-fold) in HEK293 reporter cells. […] Disrupting this iNLS motif by mutating arginine and lysine residues to alanines […] […] Representative histograms of EGFP reporter are shown to the right; percentage of cells considered ‘ON’ had reporter intensities above untransfected ‘OFF’ cells.

[2] = tested on: CDKN1B (cyclin-dependent kinase inhibitor 1B); test: CDKN1B upregulation and cell cycle arrest with minimal NC5 variants in HEK293T cells; format: cell-based, human; settings: cells with minimal NC5 receptor variant and sgCDKN1B
From the text: Minimal NC5 receptor variants were used to elicit Delta-dependent arrest of the cell cycle (FIG. 39A). CDKN1B (cyclin-dependent kinase inhibitor 1B) was targeted in HEK293T cells with sgRNAs (sgCDKN1B). CDKN1B overexpression leads to cellular arrest at the G0/G1 phase (FIG. 39B). […] The Delta-induced CDKN1B upregulation and G0/G1 arrest in cells was abrogated with DAPT (FIGS. 39E and 39F).

[3] = tested on: UAS promoter controlling H2B-citrine reporter gene; test: Delta-dependent H2B-citrine reporter activation in CHO UAS-H2B cells with sgUAS; format: cell-based, Chinese hamster
Protocol: A fusion construct, NC1, was created by replacing the NICD from human NOTCH1 with the Streptococcus pyogenes dCas9 fused to a tripartite activation domain (VP64, p65, and Rta) (FIG. 31B) with three copies of a nuclear localization signal (NLS) sequence. The construct was fluorescently tagged with mCherry to determine its subcellular distribution. Next, it was determined how the NC1 fusion construct responded to extracellular Delta ligands when transfected in mammalian cells. A Chinese hamster ovary (CHO) reporter cell line was used that was previously developed to dissect Notch-Delta signaling (Sprinzak, D. et al. Cis-interactions between Notch and Delta generate mutually exclusive signalling states. Nature 465, 86-90, doi:10.1038/nature08959 (2010)). The CHO cell line contained an inducible UAS (upstream activating sequence) promoter controlling the citrine (YFP)-tagged reporter gene, histone 2B (H2B). sgRNAs (sgUAS) were stably expressed via lentiviral transduction that allow cleaved dCas9 to bind to the UAS promoter (see Table 6). […] By imaging the fluorescence of nucleus-bound H2B-citrine, it was determined whether NC1 induced H2B expression upon exposure to surface-adsorbed Delta (FIG. 31C). […]
(§1) Cells were trypsinized and analyzed for reporter fluorescence or protein immunofluorescence using a Scanford FACScan analyzer (Becton Dickinson) and standard protocols. […]

tet-inducible EGFP gene = test: EGFP activation in HEK293T tet-inducible EGFP sgTET reporter cells on immobilized Delta; format: cell-based, human; settings: cells cultured without Delta, and DAPT-treated cells with the highest Delta concentration, 3 days
Protocol: Activation of NC5 receptors by immobilized Delta ligand leads to cleavage and nuclear translocation of dCas9-VPR. dCas9-VPR complexed with a sequence-specific sgRNA (e.g., sgTET) allows for binding of the complex to the (e.g., TET) promoter and activation of EGFP gene (FIG. 31G). […] Cells transfected with dCas9-VPR or NC5 receptor (with or without the γ-secretase inhibitor, DAPT) were cultured with or without immbolized Delta for 3 days. Percentage of activated cells (ON %) is also indicated. Cells are considered ON above the basal intensity of all cells with no construct. […] Mean fold change compared to DAPT-treated condition is indicated.
Surface adsorption of Delta: Experiments described in this example were performed with cells plated on 24- or 48-well plates (Corning) at 1.5×10^4 cells/mL. […] For experiments with CHO cells, 5 μg/mL of hamster fibronectin (Innovative Research) was also adsorbed together with Delta.
Cells were trypsinized and analyzed for reporter fluorescence or protein immunofluorescence using a Scanford FACScan analyzer (Becton Dickinson) and standard protocols. For intracellular proteins, cells were trypsinized and fixed in 4% paraformaldehyde solution for 15 minutes, were incubated for 2 h at room temperature with the appropriate primary antibody in a solution of 0.3% Triton-X 100 (Sigma) with 2% normal donkey serum (Thermo Fisher) in PBS. […]

[4] = tested on: cyclin-dependent kinase inhibitor 1B (CDKN1B); test: Delta-dependent CDKN1B upregulation and G0/G1 arrest in HEK293 sgCDKN1B cells; format: cell-based, human
From the text: Combining the ability to route native extracellular signals with the discriminatory power of sgRNA-mediated Cas9 binding to virtually any genomic target opens up an exponential amount of signaling pathways and functions (FIG. 32A). The Notch chimeric receptors disclosed herein were used to elicit a novel Delta-dependent arrest of the cell-division cycle. HEK293 cells were stably transduced with lentivirus-packaged sgRNAs that specifically target cyclin-dependent kinase inhibitor 1B (CDKN1B), an endogenous regulator of the cell cycle. […] NC5 was transfected into HEK293 cells stably expressing sgRNAs for CDKN1B (sgCDKN1B) and the cells were subsequently introduced onto bare or Delta-containing surfaces. […] 38% of Delta-exposed, NC5-transfected, and sgCDKN1B^+ cells were determined to be sequestered at the G0/G1 phase, and only 2-16% of cells in all other conditions tested. […]
as §1

## S. au. NC5 dCas9 variant: NC5 design with Staphylococcus aureus dCas9
[1]
  Delta-dependent activation levels of H2B-citrine: exhibited Delta-dependent activation levels similar to wild-type human NOTCH1

## CXCR4-dCas9-VPR: CXCR4-V2 tail-TEV cleavage site-dCas9-VPR-NLS-mCherry, SEQ ID NO:3
Luciferase reporter gene; HEK293 cells, sgRNA activating luciferase, receptor induced with doxycycline
  luminescence (luciferase reporter): sensitive to increasing concentrations of the CXCR4 ligand, CXCL12
Luciferase reporter gene; sgTET, TetO promoter, β2-arrestin-protease
  transcription of luciferase gene: regulated by CXCL2 binding
GFP reporter
  levels of GFP reporter protein: increased levels of GFP reporter protein

## mutated-iNLS variant: dCas9-VPR-mCherry with 6 arginine or lysine residues of the iNLS mutated to alanines (SEQ ID NO: 32) (VMAQLKAAAYTGWGRLSAALINGI)
pTET-EGFP reporter; HEK293T cells, confocal microscopy
  nuclear localization and EGFP reporter activation: severely impaired nuclear localization and EGFP reporter activation
pTET-EGFP reporter; HEK293 reporter cells
  percentage of cells that activate EGFP: ~16%
pTET-EGFP reporter; HEK293 reporter cells, normalized to untransfected cells
  EGFP activation: 4 fold
pTET-EGFP reporter; synthetic NLS added back to the N-terminus
  EGFP activation: partially restored EGFP activation

## C[C@H](NC(=O)Cc1cc(F)cc(F)c1)C(=O)N[C@H](C(=O)OC(C)(C)C)c1ccccc1 [DAPT]
[2]
  Delta-induced CDKN1B upregulation and G0/G1 arrest: abrogated

## NC5: hNECD-dCas9-VPR-mCherry with LMAN1 MMS sequence at the C-terminus, no synthetic NLS
[3]; CHO reporter cells with NC5 and sgUAS stably integrated, single clone
  H2B activation in response to Delta: Three-fold
[3]; transfected CHO UAS-H2B-citrine sgUAS cells, bare or Delta-coated surface, 4 days
  H2B expression with or without Delta: exhibited Delta-dependent activation of H2B
tet-inducible EGFP gene
  EGFP activation: did not activate EGFP
[4]; 4 days on Delta, compared to bare-surface, untransfected controls
  upregulation of CDKN1B: > 2 fold
[4]; Delta-exposed, NC5-transfected, sgCDKN1B+ cells
  cells sequestered at the G0/G1 phase: 38%
